The source of these data is patent US8815241B2, “Use of combination of anti-angiogenic substance and c-kit kinase inhibitor” (Eisai R&D Management Co., Ltd., priority 2005, dated 2014).

The assay deals with Human gastrointestinal stromal tumor cell line GIST882. Put plainly: Human cancer cell line subcutaneous xenograft model (GIST882 in nude mouse), combined use. In kind it is in vivo. The settings on record: once a day, for two weeks, orally. The method, then: Human gastrointestinal stromal tumor cell line GIST882 (supplied by The Brigham and Women's Hospital, Inc.) was cultured in RPMI1640 (containing 10% FBS) in a 5% carbon dioxide incubator to about 80% confluence. Following cultivation, each cell was collected by trypsin-EDTA treatment according to a general method. Using a phosphate buffer containing 50% matrigel, 5×10^7 cells/mL suspension was prepared, and 0.2 mL each of the resulting cell suspension was subcutaneously transplanted into the flank of a nude mouse. Starting from twenty-one days after the transplantation, 4-(3-chloro-4-(cyclopropylaminocarbonyl)aminophenoxy)-7-methoxy-6-quinolinecarboxamide (10 mg/kg or 30 mg/kg, once a day, for two weeks) and imatinib (160 mg/kg, twice a day, for two weeks) were orally administered alone or in combination. […] Tumor Volume (TV)=Major axis of tumor (mm)×(Minor axis of tumor)^2 (mm^2)/2 Relative Tumor Volume (RTV)=Tumor volume on measurement day/Tumor volume on the first administration day
In general terms: In xenograft studies the graft and the host belong to different species.

Molecules are shown by their SMILES.

Consider `COc1cc2nccc(Oc3ccc(NC(=O)NC4CC4)c(Cl)c3)c2cc1C(N)=O` [Compound A, 4-(3-chloro-4-(cyclopropylaminocarbonyl)aminophenoxy)-7-methoxy-6-quinolinecarboxamide], for which the “Relative tumor volume on Day 15, Average ± standard deviation” value by setting is: (Compound A 10 mg/kg alone) 2.06 ± 0.16; (Compound A 30 mg/kg alone) 1.36 ± 0.13.
